Results on 3 compounds are retold here after patent US7129269B2, “Compound” (Sterix Ltd., priority 1996, dated 2006).

The target in data set [1] is T1, oestrone sulphatase (E1-STS) (Homo sapiens, UniProt P08842).
T1 construct: endogenous in cells; host or cells: MCF-7 breast cancer cells
T1 sequence (P08842 22-583): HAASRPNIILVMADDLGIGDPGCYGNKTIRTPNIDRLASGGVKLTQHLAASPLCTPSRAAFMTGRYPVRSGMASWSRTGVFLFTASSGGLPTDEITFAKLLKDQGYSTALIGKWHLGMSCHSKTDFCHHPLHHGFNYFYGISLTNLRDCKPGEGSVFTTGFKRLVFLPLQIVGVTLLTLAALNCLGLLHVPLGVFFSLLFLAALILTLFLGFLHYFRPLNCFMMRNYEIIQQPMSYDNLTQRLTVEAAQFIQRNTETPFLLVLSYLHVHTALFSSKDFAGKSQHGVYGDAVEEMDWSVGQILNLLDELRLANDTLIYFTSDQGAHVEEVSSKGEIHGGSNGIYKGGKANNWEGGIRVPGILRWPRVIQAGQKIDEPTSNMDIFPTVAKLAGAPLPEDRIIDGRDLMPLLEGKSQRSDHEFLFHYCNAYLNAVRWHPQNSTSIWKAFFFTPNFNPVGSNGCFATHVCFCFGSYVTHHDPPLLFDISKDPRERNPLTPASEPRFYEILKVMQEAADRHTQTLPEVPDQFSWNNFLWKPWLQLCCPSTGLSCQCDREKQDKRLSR
The data set can be described thus: Oestrone sulphatase (E1-STS) inhibition in intact MCF-7 breast cancer cells. It is filed as cell-based.

In data set [2] the target is T2, oestrone sulphatase (Homo sapiens, UniProt P08842).
T2 construct: from tissue; host or cells: placenta (microsomes, 100,000 g)
T2 sequence (P08842 22-583): T1 sequence (P08842 22-583)
The data set can be described thus: Oestrone sulphatase inhibition in placental microsomes. It is filed as biochemical. The conditions noted are these: for % INHIBITION Sulphatase: placental microsomes.

Data set [3] has as its target T3, aromatase (Homo sapiens, UniProt P11511).
T3 sequence (P11511 1-503): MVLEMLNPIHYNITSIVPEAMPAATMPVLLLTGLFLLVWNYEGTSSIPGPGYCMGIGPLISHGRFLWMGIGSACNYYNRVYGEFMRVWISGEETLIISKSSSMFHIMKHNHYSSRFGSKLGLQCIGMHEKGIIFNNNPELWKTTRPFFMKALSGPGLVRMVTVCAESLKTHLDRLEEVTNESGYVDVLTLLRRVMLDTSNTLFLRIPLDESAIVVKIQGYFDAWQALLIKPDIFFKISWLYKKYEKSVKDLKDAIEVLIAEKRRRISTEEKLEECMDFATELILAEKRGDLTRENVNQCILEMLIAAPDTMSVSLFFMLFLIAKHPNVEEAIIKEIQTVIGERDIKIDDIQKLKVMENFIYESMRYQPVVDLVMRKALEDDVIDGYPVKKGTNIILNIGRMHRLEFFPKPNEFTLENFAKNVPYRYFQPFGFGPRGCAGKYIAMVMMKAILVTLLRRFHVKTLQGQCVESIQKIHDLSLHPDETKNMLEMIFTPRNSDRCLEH
The data set can be described thus: Aromatase inhibition in placental microsomes, tritiated water release assay.

For data set [4], the target named is T3, aromatase.
Data set [5] deals with T4, oestrone sulphatase (Rattus norvegicus, UniProt P15589).
T4 construct: from tissue; host or cells: rat liver
T4 sequence (P15589 20-577): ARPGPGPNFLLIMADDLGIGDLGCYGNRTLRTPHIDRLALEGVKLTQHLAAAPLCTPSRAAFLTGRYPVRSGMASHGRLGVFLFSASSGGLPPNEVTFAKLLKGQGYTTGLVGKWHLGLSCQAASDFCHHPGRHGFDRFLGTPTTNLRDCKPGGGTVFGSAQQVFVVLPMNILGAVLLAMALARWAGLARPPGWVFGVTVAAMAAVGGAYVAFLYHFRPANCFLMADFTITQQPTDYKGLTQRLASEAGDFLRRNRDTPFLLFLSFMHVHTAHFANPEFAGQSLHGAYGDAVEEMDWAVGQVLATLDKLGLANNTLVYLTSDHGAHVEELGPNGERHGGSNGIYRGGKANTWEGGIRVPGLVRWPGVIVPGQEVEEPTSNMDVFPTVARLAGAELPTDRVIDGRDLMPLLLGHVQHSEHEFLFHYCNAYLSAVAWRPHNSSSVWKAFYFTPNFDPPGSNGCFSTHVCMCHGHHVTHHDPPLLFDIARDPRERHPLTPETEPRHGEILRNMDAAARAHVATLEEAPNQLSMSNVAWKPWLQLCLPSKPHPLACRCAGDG
The data set can be described thus: In vivo inhibition of oestrone sulphatase activity in rat liver. The following applies: 24 hours after single oral dose in propylene glycol, 10 mg/Kg. Here is the method:
FIG. 11 presents in vivo inhibition of oestrone sulphatase activity in rat liver for two isoflavones according to the present invention. […] Compounds were administered as a single 10 mg/Kg dose. Oestrone sulphatase activity was assayed in tissue samples obtained 24 h after drug administration.

Like-named read-outs stand apart in the source and are kept apart here. Bounds are passed on as bounds.

Take `NS(=O)(=O)Oc1ccc(C2COc3cc(OS(N)(=O)=O)ccc3C2)cc1` (racemic) [Compound 22, (±) Isoflavane-7,4′-O,O-bisulphamate]: the “inhibition of E1-STS activity in MCF-7 cells (in words)” value in data set [1] is on record as “less potent”. Further, the “% Inhibition of sulphatase activity in MCF-7 cells” value (from here on “% Inhibition of sulphatase activity”) in data set [1] (0.1 μM), in data set [1] (1 μM) and in data set [1] (10 μM) was greater than 99% throughout. The “inhibition of E1-STS activity in placental microsomes (in words)” value against oestrone sulphatase [2] (compared with 19) is reported as “less potent”. Also, on aromatase [3], the “% Inhibition of aromatase activity in placental microsomes at 10 μM” value is recorded as 13%.
For the compound `NS(=O)(=O)Oc1cc(O)c2c(=O)cc(-c3ccccc3)oc2c1` [Compound 3, 5-Hydroxyflavone 7-O-sulphamate], the “% Inhibition of sulphatase activity” value in data set [1] (1 μM) is recorded as 4.2 ± 0.9%; in data set [1] (10 μM), 20.6 ± 1.2%. In addition, the entries for the “% INHIBITION Sulphatase” value on oestrone sulphatase [2] (1 μM) and at oestrone sulphatase [2] (10 μM) were 8% and 21%, respectively. The “% Inhibition of aromatase activity in placental microsomes at 10 μM” value at aromatase [4] was determined as 85%.
In the case of `NS(=O)(=O)Oc1ccc(C2CC(=O)c3c(O)cc(O)cc3O2)cc1` (stereo not shown) [Compound 20, 5,7-Dihydroxyflavanone 4′-O-sulphamate], on oestrone sulphatase [5], the “% Inhibition of oestrone sulphatase in vivo” value worked out at 44.2 ± 3.8%. The “% Inhibition of sulphatase activity” value is listed as 30 ± 2.8% in data set [1] (0.1 μM), 79 ± 1.2% in data set [1] (1 μM) and greater than 99% in data set [1] (10 μM). Further, at oestrone sulphatase [2] (10 μM, listed as 5,7-dehydroxy flavanone-4′-sulphamate), the “% INHIBITION Sulphatase” value worked out at 98%.
